Laboratory results: ChEMBL document CHEMBL2095176, “GSK Tuberculosis Screening Data”
Values after ≈ are worked out from the molar mass of the structure shown.

Tested on: Mycobacterium tuberculosis variant bovis BCG
Assay: microbe, parasite or virus in culture
Assay type: functional

`CCOc1ccccc1NC(=O)[C@H](Cc1ccccc1)NC(=O)c1cccs1` was tested, and the MIC90 was 9.5 µM (≈ 3.75 µg/mL).
`Cl.Cl.O=C(Nc1ccc(NC2=NCCN2)cc1)c1ccc(C(=O)Nc2ccc(NC3=NCCN3)cc2)cc1` was tested, and the MIC90 was 0.4 µM.
Work on `CC(=O)CCN1C(=O)C(=O)c2cc(Br)ccc21` yielded an MIC90 of 7.9 µM (≈ 2.34 µg/mL).
`Cc1cc(C)c(C)c(OCCCCNCc2ccco2)c1` gave an MIC90 of 7.8 µM (≈ 2.24 µg/mL).
Molecule `Clc1cc(N2CCN(c3ccncc3)CC2)ncn1` has an MIC90 of 5.1 µM (≈ 1.41 µg/mL).
Molecule `COc1ccc(-c2nnc(NC(=O)c3ccc(Br)s3)o2)cc1` has an MIC90 of 7.6 µM (≈ 2.89 µg/mL).
For `O=c1c2sc(-c3ccc(Cl)cc3)cc2ncn1-c1ccc(OCCN2CC[C@@H](F)C2)cc1`, the MIC90 was 6.7 µM (≈ 3.15 µg/mL).
For `O=C(c1cc2ccccc2o1)N1CCN(Cc2ccc3c(c2)OCO3)CC1`, the MIC90 was 2.7 µM (≈ 0.984 µg/mL).
`Cc1ccc(CCNC(=O)c2c(-c3ccc(F)cc3F)noc2C)cc1` was tested, and the MIC90 was 9.8 µM (≈ 3.49 µg/mL).
Molecule `CCc1ccc(C2CC(C(F)(F)F)n3ncc(C(=O)NCc4cccs4)c3N2)cc1` (stereo not given) has an MIC90 of 8.8 µM (≈ 3.82 µg/mL).
Molecule `c1ccc(-c2csc(Nc3nc4cc5c(cc4s3)OCO5)n2)nc1` has an MIC90 of 1.5 µM (≈ 0.532 µg/mL).
Work on `CCC(C)CC(=O)Nc1nc2c(s1)C(=O)CC(C(=O)N(C)Cc1cccc3ncccc13)C2` (stereo not given) yielded an MIC90 of 0.3 µM (≈ 0.139 µg/mL).
`COc1ccc(-c2ccc(Nc3cccc(S(=O)(=O)CCN4CCc5ccccc5C4)c3)nc2)cn1` was tested, and the MIC90 was 3.6 µM (≈ 1.8 µg/mL).
In the case of `C=CCn1c(Sc2ccnc(N3CCN(c4ccncc4)CC3)n2)nnc1C(N)=O`, the MIC90 is reported as 3.3 µM (≈ 1.4 µg/mL).
`O=C(CSc1ccccc1)Nc1nc(-c2ccccn2)cs1` showed an MIC90 of 6.7 µM (≈ 2.19 µg/mL).
With `CCCCOc1ccc(C(=O)Nc2nc(-c3ccccn3)cs2)cc1` the MIC90 was 1.6 µM (≈ 0.566 µg/mL).
With `c1ncn(-c2ccc(COc3ccc(-n4cncn4)cc3)cc2)n1` the MIC90 was 6.8 µM (≈ 2.16 µg/mL).
In the case of `O=C(CCC1CCCCC1)Nc1cccc(-c2nnc(-c3ccco3)o2)c1`, the MIC90 is reported as 9.2 µM (≈ 3.36 µg/mL).
`O=C(COc1ccccc1F)Nc1nc(-c2ccccn2)cs1` was tested, and the MIC90 was 8.7 µM (≈ 2.87 µg/mL).
Work on `Clc1ccc2c(N3CCNCC3)ccnc2c1` yielded an MIC90 of 6.5 µM (≈ 1.61 µg/mL).
In the case of `O=C(CCCOc1ccccc1)Nc1nc(-c2ccccn2)cs1`, the MIC90 is reported as 5.4 µM (≈ 1.83 µg/mL).
`CC(Sc1nc2ccccc2[nH]1)C(=O)NNC(=O)c1ccncc1` (stereo not given) was tested, and the MIC90 was 1.6 µM (≈ 0.546 µg/mL).
Molecule `CC(c1nc2ccccc2s1)N(C)C(=O)c1cccc(-n2cnnn2)c1` (stereo not given) has an MIC90 of 5.6 µM (≈ 2.04 µg/mL).
Work on `c1ccc(COc2ccc(CN3CCC4(CC3)OCCc3sccc34)cc2)nc1` yielded an MIC90 of 6.4 µM (≈ 2.6 µg/mL).
With `FC(F)(F)c1nnc2ccc(Cl)nn12` the MIC90 was 6.6 µM (≈ 1.47 µg/mL).
`COc1ccc(Nc2nc(CN3CCN(Cc4ccc(C#N)cc4)CC3)cs2)cc1` showed an MIC90 of 8.6 µM (≈ 3.61 µg/mL).
With `COc1ccc2cnnc(SCC(=O)NNC(=O)c3cccs3)c2c1OC` the MIC90 was 3 µM (≈ 1.21 µg/mL).
For `Cc1ccc(C)c(-c2nnc(NC(=O)c3cccc(C(F)(F)F)c3)o2)c1`, the MIC90 was 4.1 µM (≈ 1.48 µg/mL).
For `COc1ccc(Nc2nc(CN3CCN(Cc4cc(=O)n5ccsc5n4)CC3)cs2)cc1`, the MIC90 was 6 µM (≈ 2.81 µg/mL).
Work on `CNC(=O)c1cc(Nc2ncc(F)c(N(C)c3ccc4c(C)[nH]nc4c3)n2)ccc1OCC1CCNCC1` yielded an MIC90 of 8.8 µM (≈ 4.56 µg/mL).
`Cc1ccc2nc(C(F)(F)F)c(C(=O)NCc3cc(Cl)cc(Cl)c3)n2c1` was tested, and the MIC90 was 0.6 µM (≈ 0.241 µg/mL).
`O=C(CSc1ccc(Cl)cc1)Nc1nc(-c2ccccn2)cs1` gave an MIC90 of 4.7 µM (≈ 1.7 µg/mL).
In the case of `Cc1nn(CC(C)C)c(Cl)c1C(=O)Nc1nc(-c2ccccn2)cs1`, the MIC90 is reported as 10 µM (≈ 3.76 µg/mL).
For `COc1cccc(CNc2nc(C)cc(-c3cccc(CN(C)C)c3)n2)c1`, the MIC90 was 7 µM (≈ 2.54 µg/mL).
`Cc1cc(C(=O)Nc2nc(C)c(C)s2)c2c(C)nn(C(C)C)c2n1` showed an MIC90 of 5.5 µM (≈ 1.89 µg/mL).
Work on `CCOC(=O)CC[C@H](NC(=O)c1ccc(S(=O)(=O)Nc2ccc3nc(N)[nH]c(=O)c3c2)cc1)C(=O)OCC` yielded an MIC90 of 2.4 µM (≈ 1.31 µg/mL).
`Cc1ccc2sc(N(CCCn3ccnc3)C(=O)c3cccs3)nc2c1C` gave an MIC90 of 9.5 µM (≈ 3.77 µg/mL).
In the case of `CC(C)c1ccc(C(=O)Nc2ccc3c(c2)CN(C)CC3)cc1C(F)(F)F`, the MIC90 is reported as 6.8 µM (≈ 2.56 µg/mL).
`N#Cc1nc(-c2ccccc2F)oc1NCCc1ccccc1` gave an MIC90 of 7.9 µM (≈ 2.43 µg/mL).
Molecule `CCCCc1ccc(C(=O)Nc2nccc3ccccc23)nc1` has an MIC90 of 7.2 µM (≈ 2.2 µg/mL).
`CCOc1ccc(-n2nc3c(C)nnc(NCc4ccccc4)c3c2C)cc1` was tested, and the MIC90 was 4.8 µM (≈ 1.79 µg/mL).
With `COc1ccc(-c2nsc(SCC(=O)N3CCCC3)n2)cc1` the MIC90 was 5.6 µM (≈ 1.88 µg/mL).
In the case of `CC(C)(C)c1ccc(C(=O)Nc2nnc(-c3ccco3)o2)cc1`, the MIC90 is reported as 4.3 µM (≈ 1.34 µg/mL).
For `CCc1c(C)nc(-n2nc(C)cc2NC(=O)c2cccc3ccccc23)[nH]c1=O`, the MIC90 was 1.8 µM (≈ 0.697 µg/mL).
With `Cc1nn(Cc2ccccc2)c(Cl)c1C(=O)NC1CCCCCC1` the MIC90 was 3.2 µM (≈ 1.11 µg/mL).
`Cc1ccc2c(c1)c(=O)cc(C(F)(F)F)n2CCNC(=O)c1ccccc1F` showed an MIC90 of 9.4 µM (≈ 3.69 µg/mL).
`COc1ccccc1-c1cc(O)c2c(C)nn(-c3ccccc3)c2n1` gave an MIC90 of 2.1 µM (≈ 0.696 µg/mL).
For `Cc1cc(=O)[nH]c(-n2nc(C)cc2NC(=O)COc2ccccc2C)n1`, the MIC90 was 6.9 µM (≈ 2.44 µg/mL).
Molecule `CC1=NN(C(=O)c2ccncc2)C(O)(c2ccncc2)C1` (stereo not given) has an MIC90 of 2.6 µM (≈ 0.734 µg/mL).
Molecule `O=C(Cc1ccc(F)cc1)Nc1nc(-c2ccccn2)cs1` has an MIC90 of 8.9 µM (≈ 2.79 µg/mL).
Molecule `CCN(CC)CCCn1c(Sc2ccnc(N3CCN(c4ccncc4)CC3)n2)nnc1-c1ccco1` has an MIC90 of 2.8 µM (≈ 1.46 µg/mL).
With `O=C(Nc1ccc(-c2nc3ccccc3o2)cc1)c1cccnc1` the MIC90 was 4.5 µM (≈ 1.42 µg/mL).
Work on `Cc1ccc2nc(C(F)(F)F)c(C(=O)NCc3ncc(C(F)(F)F)cc3Cl)n2c1` yielded an MIC90 of 9.9 µM (≈ 4.32 µg/mL).
Work on `O=C(COc1ccc(Cl)cc1)NNC(=O)c1cccs1` yielded an MIC90 of 4.2 µM (≈ 1.31 µg/mL).
For `N[C@H]1CC[C@H](NCc2ccc(O)c(C(=O)NCc3ccc(Cl)c(Cl)c3)c2)CC1`, the MIC90 was 8.5 µM (≈ 3.59 µg/mL).
